Legend:
Format in all cases: cell-based
H2122 = assay: Growth suppression activity to human tumor cell line (Evaluation 2); conditions: NCI-H2122, 72 h, Human lung cancer, H2122, 3 days
Description: (§1) Human tumor cell lines different in type were suspended in mediums, seeded in individual wells of a multi-well plate and cultured. On the day after initiation of culture, serially diluted solutions of a compound were added. Culture was carried out for further 3 days. Cells were counted by a CellTiter-Glo (manufactured by Promega KK) in accordance with the protocol recommended by Promega KK. Cell viability was calculated in accordance with the equation shown below and the concentration (IC50 (nM)) of the compound at which 50% of cell growth is inhibited was obtained.
(§2) T: Intensity of light emitted from a well containing a compound
(§3) C: Intensity of light emitted from a well containing no compound

RKO = assay: as above; conditions: 72 h, Human colorectal cancer, 3 days
Description: as §1, §2, §3

H358 = assay: as above; conditions: NCI-H358, 72 h, Human lung cancer, H358, 3 days
Description: as §1, §2, §3

H1650 = assay: as above; conditions: NCI-H1650, 72 h, Human lung cancer, H1650, 3 days
Description: as §1, §2, §3

A549 = assay: as above; conditions: A549, 72 h, Human lung cancer, A549, 3 days
Description: as §1, §2, §3

A431 = assay: as above; conditions: Human epidermoid carcinoma, A431, 3 days
Description: as §1, §2, §3

HCC827 = assay: as above; conditions: Human lung cancer, HCC827, 3 days
Description: as §1, §2, §3

SK-BR-3 = assay: as above; conditions: Human breast cancer, SK-BR-3, 3 days
Description: as §1, §2, §3

H1703 = assay: Growth suppression activity in human tumor cell line; conditions: NCI-H1703, 72 h; Human lung cancer, H1703, 3 days
Description: as §1, with “(μM))” for “(nM))”
as §2, §3

HCT116 = assay: as above; conditions: HCT-116, 72 h; Human colorectal cancer, HCT116, 3 days
Description: as §1, with “(μM))” for “(nM))”
as §2, §3

HT1197 = assay: as above; conditions: 72 h; human bladder cancer, HT1197, 3 days
Description: as §1, with “(μM))” for “(nM))”
as §2, §3

K562 = assay: as above; conditions: 72 h; Human hematopoietic organ tumor, K562, 3 days
Description: as §1, with “(μM))” for “(nM))”
as §2, §3

HT29 = assay: as above; conditions: HT-29, 72 h; Human colorectal cancer, HT29, 3 days
Description: as §1, with “(μM))” for “(nM))”
as §2, §3

COL0792 = assay: as above; conditions: 72 h; Human skin cancer, COL0792, 3 days
Description: as §1, with “(μM))” for “(nM))”
as §2, §3

SDM103T2 = assay: as above; conditions: 72 h; Human lung cancer, SDM103T2, 3 days
Description: as §1, with “(μM))” for “(nM))”
as §2, §3

Mero48a = assay: as above; conditions: 72 h, Human lung cancer, 3 days
Description: as §1, with “(μM))” for “(nM))”
as §2, §3

H2126 = assay: as above; conditions: NCI-H2126, 72 h; Human lung cancer, H2126, 3 days
Description: as §1, with “(μM))” for “(nM))”
as §2, §3

BXPC3 = assay: as above; conditions: BXPC-3, 72 h; Human pancreatic cancer, BXPC3, 3 days
Description: as §1, with “(μM))” for “(nM))”
as §2, §3

DOK = assay: as above; conditions: 72 h, Human head and neck cancer, 3 days
Description: as §1, with “(μM))” for “(nM))”
as §2, §3

A2780 = assay: as above; conditions: 72 h; Human ovary cancer, A2780, 3 days
Description: as §1, with “(μM))” for “(nM))”
as §2, §3

786-0 = assay: as above; conditions: 72 h; Human renal cancer, 786-0, 3 days
Description: as §1, with “(μM))” for “(nM))”
as §2, §3

H69 = assay: as above; conditions: NCI-H69, 72 h; Human lung cancer, H69, 3 days
Description: as §1, with “(μM))” for “(nM))”
as §2, §3

SW48 = assay: as above; conditions: 72 h; Human colorectal cancer, SW48, 3 days
Description: as §1, with “(μM))” for “(nM))”
as §2, §3

CFPAC1 = assay: as above; conditions: CFPAC-1, 72 h; Human pancreatic cancer, CFPAC1, 3 days
Description: as §1, with “(μM))” for “(nM))”
as §2, §3

H2170 = assay: as above; conditions: NCI-H2170, 72 h; Human lung cancer, H2170, 3 days
Description: as §1, with “(μM))” for “(nM))”
as §2, §3

H23 = assay: as above; conditions: NCI-H23, 72 h; Human lung cancer, H23, 3 days
Description: as §1, with “(μM))” for “(nM))”
as §2, §3

MIAPACA2 = assay: as above; conditions: MIA PaCa-2, 72 h; Human pancreatic cancer, MIAPACA2, 3 days
Description: as §1, with “(μM))” for “(nM))”
as §2, §3

IC50 (H2122): 9 nM | IC50 (RKO): 31 nM | IC50 (H358): 52 nM | IC50 (H1650): 8 nM | IC50 (A549): 14 nM | IC50 (A431; Homo sapiens, A-431, 72 h): 32 nM | IC50 (A431): 18 nM | IC50 (HCC827; Homo sapiens, HCC827, 72 h): 228 nM | IC50 (HCC827): 176 nM | IC50 (SK-BR-3; Homo sapiens, SK-BR-3, 72 h): 26 nM | IC50 (SK-BR-3): 23 nM | IC50 (H1703): 20 nM | IC50 (HCT116): 120 nM | IC50 (HT1197): 130 nM | IC50 (K562): 110 nM | IC50 (HT29): 110 nM | IC50 (COL0792): 890 nM | IC50 (SDM103T2): 580 nM | IC50 (Mero48a): 160 nM | IC50 (H2126): 110 nM | IC50 (BXPC3): 270 nM | IC50 (DOK): 110 nM | IC50 (A2780): 50 nM | IC50 (786-0): 220 nM | IC50 (H69): 110 nM | IC50 (SW48): 130 nM | IC50 (CFPAC1): 110 nM | IC50 (H2170): 260 nM | IC50 (H23): 50 nM | IC50 (MIAPACA2): 70 nM
SMILES: Nc1ncnc2c1c(Br)cn2[C@@H]1O[C@H](CO)[C@@H](O)[C@@H]1F [Comparative Example 1, (2R,3R,4S,5R)-5-(4-amino-5-bromo-7H-pyrrolo[2,3-d]pyrimidin-7-yl)-4-fluoro-2-(hydroxymethyl) tetrahydrofuran-3-ol]
